Columns and labels:
[1] = test system: gut microbiome gene families; assay: Gene differential abundance analysis of stool metagenome (HUMAnN2, Uniref50/Uniref90, transposases); assay type: in vivo, human
Text: The adaptors, human reads contamination, and low quality sequences were removed from the raw sequencing data using software kneaddata. Trimmomatic (Bolger et al., Bioinformatics 30, 2114 (2014)) was invoked by kneaddata for removing adaptor sequence, trimming low quality bases, and removing low quality reads. Bowtie (Langmead and Salzberg, Nat. Methods 9, 357 (2012)) was invoked by kneaddata for human reads detection. • Removing sequencing noise: For each sample, if the abundance of one species was smaller than 0.05% of the maximum abundance of all species in the sample, it was considered as noise, and the abundance of this species in the sample was set as 0. • Imputing missing value (i.e. Os): Because log 2 transformation was needed in further analysis, adjustment factor (e) was added to the abundance matrix, where e equals 50% of the minimum non-zero abundance value of all samples. • Removing low abundance species: A species was removed if the relative abundance was lower than 0.1% in >=95% of samples. 128 species was kept for further analysis.
HUMAnN2 (Abubucker et al., PLoS Comput. Biol. 8, e1002358 (2012)) was used to calculate gene and pathway abundance from metagenomic sequencing data. Uniref50 (UniProt® Consortium, Nucleic Acids Res. 43, D204 (2015)) was used for gene family definition. MetaCyc (Caspi et al., Nucleic Acids Res. 42, D459 (2014)) and KEGG (Kanehisa and Goto, Nucleic Acids Res. 28, 27 (2000); Kanehisa et al., Nucleic Acids Res. 44, D457 (2016)) were used for pathway analysis. • Gene family identification: Initially, 989251 gene families were identified from the dataset by HUMAnN2. Quantile normalization was implemented. For each sample, the RPK values were added up till 90% percentile of all genes (normalization factor, nf). RPK value of each gene in each sample was then divided by the nf of the sample, and multiplied with the mean of nf of all samples. 683270 uncharacterized genes were removed. Genes undetected in over 90% of samples (101994) were removed. 203987 genes were kept. Due to the large number of genes identified, 25% of the most varying genes were selected for further analysis. The most varying genes were defined by the coefficient variation (cv=sd/mean) of log 2 transformed value. • MetaCyc pathway identification: HUMAnN2 identified 567 MetaCyc pathways from the dataset. Quantile normalization was then performed. For each sample, the abundance values were added up till 90% percentile of all pathways (normalization factor, nf). Each pathway abundance in each sample was divided by the nf of the sample, and then multiplied with the mean of nf for all samples. The low abundance pathways (52), which were not detected on over 90% of all samples, were removed. 515 high quality MetaCyc pathways were kept for further analysis. • KEGG pathway identification: HUMAnN2 identified 160 KEGG pathways from the dataset. Quantile normalization was applied, and low abundance pathways were removed. 66 high quality KEGG pathways were kept for further analysis.
• Species differential abundance analysis: The time effect of OCA treatment was studied on three OCA dose groups separately using Friedman rank test. The dose effect of OCA treatment was studied on three time point separately, and Kruskal-Wallis test was used. • Gene differential abundance analysis: For each of the most varying genes, repeated-measure ANOVA was performed to study the time effect and OCA dose effect on gene abundance change. […]

[2] = test system: Lactococcus lactis, Streptococcus thermophilus, and Lactobacillus casei/paracasei; assay: Minimal inhibitory concentrations (MIC) of bile acids and OCA, aerobic and anaerobic; assay type: cell-based
Text: FIGS. 58A-58B: Minimal inhibitory concentrations (MICs) of selected Gram-positive bacterial species in response treatment with two endogenous bile acids and OCA. […] N=3 per measurement. […] N=3 per measurement.
a (Begley et al., FEMS Microbiol Rev. 29, 625-651 (2005)), and conducted genomic analysis is consistent with the notion that specific Gram-positive taxa become proportionally more abundant during OCA administration due to enhanced proliferation. FXR-dependent inhibition of endogenous bile acid synthesis by OCA may reduce the growth inhibitory effects on Gram-positive bacterial species that are normally sensitive to bile acids. To determine if the three bacterial species with the greatest representation of pathways associated with OCA (FIG. 57A) are sensitive to bile acids, the species-specific minimal inhibitory concentrations (MIC) of the two most predominant bile acids in the human small intestine, glycochenodeoxycholic acid (GCDCA) and glycocholic acid (GCA) were determined (FIG. 58A). Since the environment of the small intestinal lumen may transition from an aerobic to anaerobic state along its length (He et al., Proceedings of the National Academy of Sciences of the United States of America, 96, 4586-4591 (1999)), MICs were determined under both aerobic and anaerobic conditions. […] Consistent with this notion, it has been shown that bile salt hydrolases (BSH), enzymes that are unique to bacteria resident in the mammalian gut where they can enhance bile acid tolerance (Begley et al., FEMS Microbiol Rev. 29, 625-651 (2005)), are missing from the genome of S. thermophilus, which is induced by OCA. It can be supported by showing that these species are sensitive to growth inhibition in vitro when exposed to physiologically-relevant concentrations of conjugated bile acids found in the small intestine. […] Since OCA is a bile acid analogue possibly capable of inhibiting bacterial growth, the MICs of OCA for the same bacterial species were determined (FIG. 58B). […] These findings support the notion that OCA treatment leads to the increased growth of bile acid sensitive bacterial taxa by suppressing endogenous bile acid synthesis.

[3] = target: T1, farnesoid X receptor (FXR) (Homo sapiens, UniProt Q96RI1); settings: cited from earlier work
T1 sequence (Q96RI1 1-486): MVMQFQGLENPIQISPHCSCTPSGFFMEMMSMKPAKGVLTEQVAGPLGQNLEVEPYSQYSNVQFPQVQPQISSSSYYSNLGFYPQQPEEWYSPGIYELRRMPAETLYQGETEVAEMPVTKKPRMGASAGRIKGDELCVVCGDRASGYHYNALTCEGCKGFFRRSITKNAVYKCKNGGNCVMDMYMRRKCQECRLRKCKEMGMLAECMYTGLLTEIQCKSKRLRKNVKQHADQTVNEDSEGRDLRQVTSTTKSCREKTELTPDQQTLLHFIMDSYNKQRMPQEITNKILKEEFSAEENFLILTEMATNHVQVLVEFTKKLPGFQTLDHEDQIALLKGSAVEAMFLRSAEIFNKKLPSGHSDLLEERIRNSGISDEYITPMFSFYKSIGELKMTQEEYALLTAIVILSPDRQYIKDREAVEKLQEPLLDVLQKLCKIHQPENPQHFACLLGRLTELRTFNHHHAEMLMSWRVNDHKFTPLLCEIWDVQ

CC[C@H]1[C@@H](O)[C@@H]2[C@H](CC[C@]3(C)[C@@H]([C@H](C)CCC(=O)O)CC[C@@H]23)[C@@]2(C)CC[C@@H](O)C[C@@H]12 [OCA, 3α,7α-dihydroxy-6α-ethyl-5β-cholan-24-oic acid]
number of genes with significant time-dependent effects in response to OCA treatment ([1]; Uniref90 high stringency genomic analysis, eight bacterial species): 782
representation of bacterial transposase genes ([1]; all three OCA doses): robust increase
glycosyl transferase genes in the presence of OCA ([1]; in vivo): significantly increased
OCA dose effect on gene abundance ([1]; repeated measure ANOVA, FDR<0.05): No OCA dose effect or OCA dose×day interaction was observed
number of genes differentially abundant over time ([1]; repeated measure ANOVA, FDR<0.05 for time effect): 112
inhibition of growth of the three bacterial species (MIC determination) [2]: able to inhibit growth of all three bacterial species
inhibition of growth at OCA concentrations calculated to be reached in the human small intestine ([2]; ˜40 mM at a 10 mg/day dose): minimal to no inhibition of growth
potency as FXR agonist relative to the endogenous FXR agonist CDCA [3]: 100 fold
